# Assay results from paper PMC3190963 (Journal of structural biology, 2011).
# Biological target: human UPP1 (hUPP1) (Homo sapiens, UniProt Q16831)
# Assay: absorbance change at […] nm, uridine to uracil
# Type: biochemical
# Conditions: uridine and inorganic phosphate; reference for hUPP2 activity
# Sequence of human UPP1 (hUPP1) (Q16831 whole entry): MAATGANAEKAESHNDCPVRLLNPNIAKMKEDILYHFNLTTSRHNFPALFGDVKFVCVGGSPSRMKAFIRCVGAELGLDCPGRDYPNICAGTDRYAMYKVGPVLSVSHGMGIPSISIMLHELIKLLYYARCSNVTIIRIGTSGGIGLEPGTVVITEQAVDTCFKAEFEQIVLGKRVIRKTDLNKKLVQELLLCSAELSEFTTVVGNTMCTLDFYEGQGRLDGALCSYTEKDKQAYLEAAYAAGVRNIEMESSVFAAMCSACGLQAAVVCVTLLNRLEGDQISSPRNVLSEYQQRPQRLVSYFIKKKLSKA
compound,measurement,value
O=c1ccn([C@@H]2O[C@H](CO)[C@@H](O)[C@H]2O)c(=O)[nH]1 [uridine],"absorbance change at 280 nm, uridine to uracil",in vitro activity of recombinant hUPP2 and hUPP1 was compared
